Measurements: patent US9149038B2, “4-amino-6-(heterocyclic)picolinates and 6-amino-2-(heterocyclic)pyrimidine-4-carboxylates and their use as herbicides” (Dow AgroSciences LLC, priority 2013, dated 2015)
Like-named read-outs stand apart in the source and are kept apart here.

Assays:
[1] = system: Key Broadleaf Weed and Crop Species; assay: Post-Emergent Test II: postemergent herbicidal activity, visual rating after 14 d (Table 7); assay type: in vivo; settings: post-emergence, 336 h; for pest or weed control at 35 g/ha: 35 g ai/ha; for pest or weed control at 70 g/ha: 70 g ai/ha; for pest or weed control at 140 g/ha: 140 g ai/ha
Excerpt: (§1) Herbicidal evaluations were made visually on a scale of 0 to 100 where 0 represents no activity and 100 represents complete plant death.
(§2) Seeds or nutlets of the desired test plant species were planted in Sun Gro Metro-Mix® 360 planting mixture, which typically has a pH of 6.0 to 6.8 and an organic matter content of about 30 percent, in plastic pots with a surface area of 64 square centimeters (cm^2). When required to ensure good germination and healthy plants, a fungicide treatment and/or other chemical or physical treatment was applied. The plants were grown for 7-21 d in a greenhouse with an approximate 15 h photoperiod which was maintained at about 23-29° C. during the day and 22-28° C. during the night. Nutrients and water were added on a regular basis and supplemental lighting was provided with overhead metal halide 1000-Watt lamps as necessary. The plants were employed for testing when they reached the first or second true leaf stage.
(§3) A weighed amount, determined by the highest rate to be tested, of each test compound was placed in a 25 mL glass vial and was dissolved in 4 mL of a 97:3 v/v mixture of acetone and DMSO to obtain concentrated stock solutions. […] The concentrated stock solutions obtained were diluted with 20 mL of an aqueous mixture containing acetone, water, isopropyl alcohol, DMSO, Atplus 411F crop oil concentrate, and Triton® X-155 surfactant in a 48.5:39:10:1.5:1.0:0.02 v/v ratio to obtain spray solutions containing the highest application rates. Additional application rates were obtained by serial dilution of 12 mL of the high rate solution into a solution containing 2 mL of a 97:3 v/v mixture of acetone and DMSO and 10 mL of an aqueous mixture containing acetone, water, isopropyl alcohol, DMSO, Atplus 411F crop oil concentrate, and Triton X-155 surfactant in a 48.5:39:10:1.5:1.0:0.02 v/v ratio to obtain ½×, ¼×, ⅛× and 1/16× rates of the high rate. Compound requirements are based upon a 12 mL application volume at a rate of 187 liters per hectare (L/ha). Formulated compounds were applied to the plant material with an overhead Mandel track sprayer equipped with 8002E nozzles calibrated to deliver 187 L/ha over an application area of 0.503 square meters at a spray height of 18 inches (43 cm) above the average plant canopy height. Control plants were sprayed in the same manner with the solvent blank.
(§4) The treated plants and control plants were placed in a greenhouse as described above and watered by subirrigation to prevent wash-off of the test compounds. After 14 d, the condition of the test plants as compared with that of the untreated plants was determined visually and scored on a scale of 0 to 100 percent where 0 corresponds to no injury and 100 corresponds to complete kill and are presented as indicated in Table 4.

[2] = system: Key Grass and Sedge Weeds as well as Grass Crops; assay: Post-Emergent Test II: postemergent herbicidal activity, visual rating after 14 d (Table 8); assay type: in vivo; settings: post-emergence, 336 h; for pest or weed control at 35 g/ha: 35 g ai/ha; for pest or weed control at 70 g/ha: 70 g ai/ha; for pest or weed control at 140 g/ha: 140 g ai/ha
Excerpt: as §1, §2, §3, §4

[3] = lambsquarters (Chenopodium album), read-out: Visual Growth Reduction (%) 14 Days After Application CHEAL
[4] = oilseed rape, canola (Brassica napus), read-out: Visual Growth Reduction (%) 14 Days After Application BRSNN
[5] = redroot pigweed (Amaranthus retroflexus), read-out: Visual Growth Reduction (%) 14 Days After Application AMARE
[6] = sunflower (Helianthus annuus), read-out: Visual Growth Reduction (%) 14 Days After Application HELAN
[7] = velvetleaf (Abutilon theophrasti), read-out: Visual Growth Reduction (%) 14 Days After Application ABUTH
[8] = wild poinsettia (Euphorbia heterophylla), read-out: Visual Growth Reduction (%) 14 Days After Application EPHHL
[9] = barnyardgrass (Echinochloa crus-galli), read-out: Visual Growth Reduction (%) 14 Days After Application ECHCG
[10] = maize, corn (Zea mays), read-out: Visual Growth Reduction (%) 14 Days After Application ZEAMX
[11] = rice (Oryza sativa), read-out: Visual Growth Reduction (%) 14 Days After Application ORYSA
[12] = wheat, spring (Triticum aestivum), read-out: Visual Growth Reduction (%) 14 Days After Application TRZAS
[13] = yellow nutsedge (Cyperus esculentus), read-out: Visual Growth Reduction (%) 14 Days After Application CYPES
[14] = giant foxtail (Setaria faberi), read-out: Visual Growth Reduction (%) 14 Days After Application SETFA

SMILES	pest or weed control at 35 g/ha [1, 3]	pest or weed control at 70 g/ha [1, 3]	pest or weed control at 140 g/ha [1, 3]	pest or weed control at 35 g/ha [1, 4]	pest or weed control at 70 g/ha [1, 4]	pest or weed control at 140 g/ha [1, 4]	pest or weed control at 35 g/ha [1, 5]	pest or weed control at 70 g/ha [1, 5]	pest or weed control at 140 g/ha [1, 5]	pest or weed control at 35 g/ha [1, 6]	pest or weed control at 70 g/ha [1, 6]	pest or weed control at 140 g/ha [1, 6]	pest or weed control at 35 g/ha [1, 7]	pest or weed control at 70 g/ha [1, 7]	pest or weed control at 140 g/ha [1, 7]	pest or weed control at 35 g/ha [1, 8]	pest or weed control at 70 g/ha [1, 8]	pest or weed control at 140 g/ha [1, 8]	pest or weed control at 35 g/ha [2, 9]	pest or weed control at 70 g/ha [2, 9]	also measured
COC(=O)c1nc(-c2cc3c(cc2F)OC(F)(F)O3)c(F)c(N)c1OC [Compound 22, Methyl 4-amino-5-fluoro-3-methoxy-6-(2,2,6-trifluorobenzo[d][1,3]dioxol-5-yl)picolinate]	0 to 29%	0 to 29%	0 to 29%	0 to 29%	0 to 29%	0 to 29%	0 to 29%	0 to 29%	0 to 29%	85 to 94%	85 to 94%	85 to 94%	0 to 29%	0 to 29%	0 to 29%	30 to 44%	45 to 59%	45 to 59%	0 to 29%	0 to 29%	pest or weed control at 140 g/ha [2, 9]: 45 to 59%; pest or weed control at 35 g/ha [2, 10]: 0 to 29%; pest or weed control at 70 g/ha [2, 10]: 60 to 74%; pest or weed control at 140 g/ha [2, 10]: 75 to 84%; pest or weed control at 35 g/ha [2, 11]: 0 to 29%; pest or weed control at 70 g/ha [2, 11]: 0 to 29%; pest or weed control at 140 g/ha [2, 11]: 0 to 29%; pest or weed control at 35 g/ha [2, 12]: 0 to 29%; pest or weed control at 70 g/ha [2, 12]: 45 to 59%; pest or weed control at 140 g/ha [2, 12]: 60 to 74%; pest or weed control at 35 g/ha [2, 13]: 95 to 100%; pest or weed control at 70 g/ha [2, 13]: 95 to 100%; pest or weed control at 140 g/ha [2, 13]: 95 to 100%
Nc1nc(-c2ccc3c(c2)OC(F)(F)O3)nc(C(=O)O)c1Cl [Compound 61]	60 to 74%	60 to 74%	75 to 84%	60 to 74%	85 to 94%	75 to 84%	0 to 29%	30 to 44%	30 to 44%	60 to 74%	60 to 74%	75 to 84%	45 to 59%	60 to 74%	60 to 74%	85 to 94%	95 to 100%	95 to 100%	85 to 94%	85 to 94%	pest or weed control at 140 g/ha [2, 9]: 85 to 94%; pest or weed control at 35 g/ha [2, 14]: 60 to 74%; pest or weed control at 70 g/ha [2, 14]: 75 to 84%; pest or weed control at 140 g/ha [2, 14]: 85 to 94%; pest or weed control at 35 g/ha [2, 11]: 0 to 29%; pest or weed control at 70 g/ha [2, 11]: 45 to 59%; pest or weed control at 140 g/ha [2, 11]: 60 to 74%; pest or weed control at 35 g/ha [2, 12]: 60 to 74%; pest or weed control at 70 g/ha [2, 12]: 75 to 84%; pest or weed control at 140 g/ha [2, 12]: 75 to 84%; pest or weed control at 35 g/ha [2, 13]: 0 to 29%; pest or weed control at 70 g/ha [2, 13]: 0 to 29%; pest or weed control at 140 g/ha [2, 13]: 45 to 59%
